Laboratory results taken from the supplement of paper PMC13380429.

Tests used:
[1] = system: A549-ACE2 infected with SARS-CoV-2; assay: cell count relative to DMSO; higher = less toxic; settings: 24 h
A549-ACE2 [2] = assay: drug-induced phospholipidosis relative to tamoxifen; higher = more phospholipidosis
Calu-3 [3] = assay: cell viability relative to DMSO; higher = less toxic; settings: 72 h
HepG2 [4] = assay: as above; settings: 72 h
Caco-2 [5] = assay: as above; settings: 72 h
U2OS [6] = assay: as above; settings: 72 h
Vero E6 [7] = assay: as above; settings: 72 h
[8] = system: A549-ACE2 infected with SARS-CoV-2; assay: morphology score (similarity to uninfected cells); higher = more like uninfected cells; settings: 24 h
Calu-3 [9] = assay: relative viability EC50 (midpoint between 100% and the lowest measured viability); higher = less toxic; settings: 72 h
HepG2 [10] = assay: as above; settings: 72 h
Caco-2 [11] = assay: as above; settings: 72 h
U2OS [12] = assay: as above; settings: 72 h
Vero E6 [13] = assay: as above; settings: 72 h
[14] = system: A549-ACE2 infected with SARS-CoV-2; assay: SARS-CoV-2 infection rate relative to DMSO; higher = more infection; settings: 24 h
A549-ACE2 [15] = assay: phospholipidosis EC50; higher = less potent phospholipidosis inducer
Calu-3 [16] = assay: drug sensitivity score (DSS) for viability; higher = more toxic; extreme values may be limits of the assay; settings: 72 h
HepG2 [17] = assay: as above; settings: 72 h
Caco-2 [18] = assay: as above; settings: 72 h
U2OS [19] = assay: as above; settings: 72 h
Vero E6 [20] = assay: as above; settings: 72 h

C[C@@H]1C[C@H]2[C@@H]3CCC4=CC(=O)C=C[C@]4(C)[C@@]3(Cl)[C@@H](O)C[C@]2(C)[C@@]1(OC(=O)c1ccco1)C(=O)CCl [MOMETASONE FUROATE]
Settings	SARS-CoV-2 infection rate [%]	cell count [%]	cell viability [%]	morphology score	phospholipidosis EC50 [µM]
A549-ACE2 [15], 24 h	–	–	–	–	3.35
Caco-2 [5], 1 nM	–	–	91.3	–	–
Caco-2 [5], 10 nM	–	–	109	–	–
Caco-2 [5], 100 nM	–	–	85.6	–	–
Caco-2 [5], 1000 nM	–	–	96	–	–
Caco-2 [5], 10000 nM	–	–	83.1	–	–
Calu-3 [3], 1 nM	–	–	98.7	–	–
Calu-3 [3], 10 nM	–	–	101	–	–
Calu-3 [3], 100 nM	–	–	90.3	–	–
Calu-3 [3], 1000 nM	–	–	97.1	–	–
Calu-3 [3], 10000 nM	–	–	90.9	–	–
HepG2 [4], 1 nM	–	–	114	–	–
HepG2 [4], 10 nM	–	–	116	–	–
HepG2 [4], 100 nM	–	–	122	–	–
HepG2 [4], 1000 nM	–	–	97.4	–	–
HepG2 [4], 10000 nM	–	–	105	–	–
U2OS [6], 1 nM	–	–	98.5	–	–
U2OS [6], 10 nM	–	–	101	–	–
U2OS [6], 100 nM	–	–	94	–	–
U2OS [6], 1000 nM	–	–	102	–	–
U2OS [6], 10000 nM	–	–	92.8	–	–
Vero E6 [7], 1 nM	–	–	109	–	–
Vero E6 [7], 10 nM	–	–	100	–	–
Vero E6 [7], 100 nM	–	–	103	–	–
Vero E6 [7], 1000 nM	–	–	102	–	–
Vero E6 [7], 10000 nM	–	–	100	–	–
[1], 0.3 µM	–	97	–	–	–
[1], 3 µM	–	103	–	–	–
[1], 10 µM	–	108	–	–	–
[1], 30 µM	–	94	–	–	–
[8], 0.3 µM	–	–	–	0.19	–
[8], 3 µM	–	–	–	0.42	–
[8], 10 µM	–	–	–	0.6	–
[8], 30 µM	–	–	–	0.34	–
[14], 0.3 µM	99	–	–	–	–
[14], 3 µM	69	–	–	–	–
[14], 10 µM	28	–	–	–	–
[14], 30 µM	71	–	–	–	–

drug-induced phospholipidosis [%], A549-ACE2 [2]
Settings	0.3 µM	0.833333 µM	3.33333 µM	6.66667 µM	10 µM	30 µM
24 h	10.4	17.5	33.2	53.3	54.9	51.9
48 h	5.23	13.8	27.7	41.1	38.5	41.2
72 h	-4	-3.08	16.9	30.4	39.5	29.6

Settings	drug sensitivity score	relative viability EC50 [µM]
Caco-2 [11]	–	> 10
Caco-2 [18]	0.5	–
Calu-3 [9]	–	> 10
Calu-3 [16]	0	–
HepG2 [10]	–	> 10
HepG2 [17]	0	–
U2OS [12]	–	> 10
U2OS [19]	0	–
Vero E6 [13]	–	> 10
Vero E6 [20]	0	–

COc1ccccc1C1(O)CCN(CCCn2c3ccccc3c3ccccc32)CC1 [NNC-05-2090]
Settings	SARS-CoV-2 infection rate [%]	cell count [%]	cell viability [%]	morphology score	phospholipidosis EC50 [µM]
A549-ACE2 [15], 24 h	–	–	–	–	1.98
A549-ACE2 [15], 48 h	–	–	–	–	3.85
A549-ACE2 [15], 72 h	–	–	–	–	4.18
Caco-2 [5], 1 nM	–	–	97.4	–	–
Caco-2 [5], 10 nM	–	–	91.7	–	–
Caco-2 [5], 100 nM	–	–	109	–	–
Caco-2 [5], 1000 nM	–	–	83.1	–	–
Caco-2 [5], 10000 nM	–	–	68.4	–	–
Calu-3 [3], 1 nM	–	–	94.1	–	–
Calu-3 [3], 10 nM	–	–	99.9	–	–
Calu-3 [3], 100 nM	–	–	90.7	–	–
Calu-3 [3], 1000 nM	–	–	89.1	–	–
Calu-3 [3], 10000 nM	–	–	7.5	–	–
HepG2 [4], 1 nM	–	–	94.9	–	–
HepG2 [4], 10 nM	–	–	99.7	–	–
HepG2 [4], 100 nM	–	–	90.4	–	–
HepG2 [4], 1000 nM	–	–	99.9	–	–
HepG2 [4], 10000 nM	–	–	40.8	–	–
U2OS [6], 1 nM	–	–	99.4	–	–
U2OS [6], 10 nM	–	–	94.1	–	–
U2OS [6], 100 nM	–	–	102	–	–
U2OS [6], 1000 nM	–	–	94.6	–	–
U2OS [6], 10000 nM	–	–	82.9	–	–
Vero E6 [7], 1 nM	–	–	90.9	–	–
Vero E6 [7], 10 nM	–	–	97.5	–	–
Vero E6 [7], 100 nM	–	–	88.1	–	–
Vero E6 [7], 1000 nM	–	–	92.1	–	–
Vero E6 [7], 10000 nM	–	–	74.5	–	–
[1], 0.1 µM	–	98	–	–	–
[1], 0.3 µM	–	106	–	–	–
[1], 1 µM	–	109	–	–	–
[1], 3 µM	–	119	–	–	–
[8], 0.1 µM	–	–	–	0.12	–
[8], 0.3 µM	–	–	–	0.04	–
[8], 1 µM	–	–	–	0.29	–
[8], 3 µM	–	–	–	0.85	–
[14], 0.1 µM	98	–	–	–	–
[14], 0.3 µM	98	–	–	–	–
[14], 1 µM	86	–	–	–	–
[14], 3 µM	34	–	–	–	–

drug-induced phospholipidosis [%], A549-ACE2 [2]
Settings	0.3 µM	0.833333 µM	3.33333 µM	6.66667 µM	10 µM
24 h	3.96	10.5	87.6	108	101
48 h	4.69	12.2	64.2	102	116
72 h	5.37	9.7	49.7	106	121

Settings	drug sensitivity score	relative viability EC50 [µM]
Caco-2 [18]	3.4	–
Calu-3 [9]	–	2.19
Calu-3 [16]	7	–
HepG2 [10]	–	3.14
HepG2 [17]	3.2	–
U2OS [12]	–	> 10
U2OS [19]	0.9	–
Vero E6 [20]	1.9	–
